Data published in patent US20220323406A1, “METHODS AND COMPOSITIONS FOR DIFFERENTIATING STEM CELLS” (Massachusetts Institute of Technology, priority 2019, published 2022).
Counter-ions that a name gives are not always drawn.

Columns and labels:
[1] = test system: ENR+CD organoids (ISC to Paneth cell differentiation); assay: Primary screen: basal (non-stimulated) lysozyme secretion LYZ.NS, 2.5-D 384-well ENR+CD organoid differentiation; format: cell-based, mouse; conditions: primary screen; for Z.LYZ.NS: standard z score
Description: (§1) High-throughput screening.

[2] = test system: ENR+CD organoids (ISC to Paneth cell differentiation); assay: Primary screen: CCh-stimulated lysozyme secretion LYZ.S, 2.5-D 384-well ENR+CD organoid differentiation; format: cell-based, mouse; conditions: primary screen
Description: as §1

ENR+CD organoids = assay: Primary screen: ATP (CellTiter-Glo 3D, CTG) cell number/viability, 2.5-D 384-well ENR+CD organoids; conditions: primary screen; for Z.CTG: standard z score;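 on all read-outs here: compounds given at plating and again on day 3 over a 6-day differentiation from ENR+CV stem-cell-enriched precursors, ATP measured on day 6, plate median as control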
[3] = dose 0.08 uM, FC vs plate median
[4] = dose 0.40 uM, FC vs plate median
[5] = dose 2.00 uM, FC vs plate median
[6] = dose 10.00 uM, FC vs plate median
[7] = dose 0.08 uM, FC relative to plate median
[8] = dose 0.40 uM, FC relative to plate median
[9] = dose 2.00 uM, FC relative to plate median
[10] = dose 10.00 uM, FC relative to plate median

Compound: CCOC(=O)[C@H](CCc1ccccc1)N[C@@H](C)C(=O)N1C(=O)N(C)C[C@H]1C(=O)O [Imidapril HCl]
- Dose.FC.LYZ.NS (log2 fold change) ([1]; dose 0.08 uM): −0.006
- Z.LYZ.NS (standard z score) ([1]; dose 0.08 uM): −0.049
- Dose.FC.LYZ.NS (log2 fold change) ([1]; dose 0.40 uM): 0.000
- Z.LYZ.NS (standard z score) ([1]; dose 0.40 uM): 0.004
- Dose.FC.LYZ.NS (log2 fold change) ([1]; dose 2.00 uM): 0.014
- Z.LYZ.NS (standard z score) ([1]; dose 2.00 uM): 0.121
- Dose.FC.LYZ.NS (log2 fold change) ([1]; dose 10.00 uM): −0.081
- Z.LYZ.NS (standard z score) ([1]; dose 10.00 uM): −0.706
- Dose.FC.LYZ.S (log2 fold change) ([2]; dose 0.08 uM): −0.042
- Dose.FC.LYZ.S (log2 fold change) ([2]; dose 0.40 uM): 0.109
- Dose.FC.LYZ.S (log2 fold change) ([2]; dose 2.00 uM): −0.035
- Dose.FC.LYZ.S (log2 fold change) ([2]; dose 10.00 uM): −0.075
- Dose.FC.CTG (log2 fold change) (ENR+CD organoids; dose 0.08 uM): −0.333
- Dose.FC.CTG (log2 fold change) (ENR+CD organoids; dose 0.40 uM): −0.148
- Dose.FC.CTG (log2 fold change) (ENR+CD organoids; dose 2.00 uM): −0.236
- Dose.FC.CTG (log2 fold change) (ENR+CD organoids; dose 10.00 uM): −0.227

Compound: FC(F)(F)c1ccc(/C=C/c2nc(COc3ccc(CCCCn4ccnn4)cc3)co2)cc1 [Mubritinib (TAK 165)]
- Z.LYZ.NS ([1]; dose 0.08 uM): −0.500
- Z.LYZ.NS ([1]; dose 0.40 uM): −1.687
- Z.LYZ.NS ([1]; dose 2.00 uM): −1.950
- Z.LYZ.NS ([1]; dose 10.00 uM): −2.092
- Dose.FC.LYZ.NS [1, 3]: −0.057 log2 fold change
- Dose.FC.LYZ.NS [1, 4]: −0.194 log2 fold change
- Dose.FC.LYZ.NS [1, 5]: −0.224 log2 fold change
- Dose.FC.LYZ.NS [1, 6]: −0.240 log2 fold change
- Dose.FC.LYZ.S [2, 3]: −0.119 log2 fold change
- Dose.FC.LYZ.S [2, 4]: −0.154 log2 fold change
- Dose.FC.LYZ.S [2, 5]: −0.299 log2 fold change
- Dose.FC.LYZ.S [2, 6]: −0.294 log2 fold change
- Z.CTG (ENR+CD organoids; dose 0.08 uM): −1.252
- Z.CTG (ENR+CD organoids; dose 0.40 uM): −0.812
- Z.CTG (ENR+CD organoids; dose 2.00 uM): −1.265
- Z.CTG (ENR+CD organoids; dose 10.00 uM): −1.240
- Dose.FC.CTG (ENR+CD organoids; [3]): −0.524 log2 fold change
- Dose.FC.CTG (ENR+CD organoids; [4]): −0.340 log2 fold change
- Dose.FC.CTG (ENR+CD organoids; [5]): −0.530 log2 fold change
- Dose.FC.CTG (ENR+CD organoids; [6]): −0.519 log2 fold change

Compound: C[C@H]1COC2(CCN(c3nc(=O)c4cc(C(F)(F)F)cc([N+](=O)[O-])c4s3)CC2)O1 (racemic) [BTZ043 Racemate]
- Dose.FC.LYZ.NS ([1]; dose 0.08 uM): 0.131 log2 fold change
- Z.LYZ.NS (standard z score) ([1]; dose 0.08 uM): 1.138
- Dose.FC.LYZ.NS ([1]; dose 0.40 uM): 0.186 log2 fold change
- Z.LYZ.NS (standard z score) ([1]; dose 0.40 uM): 1.619
- Dose.FC.LYZ.NS ([1]; dose 2.00 uM): 0.089 log2 fold change
- Z.LYZ.NS (standard z score) ([1]; dose 2.00 uM): 0.776
- Dose.FC.LYZ.NS ([1]; dose 10.00 uM): 0.100 log2 fold change
- Z.LYZ.NS (standard z score) ([1]; dose 10.00 uM): 0.870
- Dose.FC.LYZ.S ([2]; dose 0.08 uM): 0.199 log2 fold change
- Dose.FC.LYZ.S ([2]; dose 0.40 uM): 0.252 log2 fold change
- Dose.FC.LYZ.S ([2]; dose 2.00 uM): 0.038 log2 fold change
- Dose.FC.LYZ.S ([2]; dose 10.00 uM): 0.070 log2 fold change
- Dose.FC.CTG (ENR+CD organoids; dose 0.08 uM): 0.497 log2 fold change
- Z.CTG (standard z score) (ENR+CD organoids; dose 0.08 uM): 1.187
- Dose.FC.CTG (ENR+CD organoids; dose 0.40 uM): 0.545 log2 fold change
- Z.CTG (standard z score) (ENR+CD organoids; dose 0.40 uM): 1.303
- Dose.FC.CTG (ENR+CD organoids; dose 2.00 uM): 0.063 log2 fold change
- Z.CTG (standard z score) (ENR+CD organoids; dose 2.00 uM): 0.150
- Dose.FC.CTG (ENR+CD organoids; dose 10.00 uM): 0.327 log2 fold change
- Z.CTG (standard z score) (ENR+CD organoids; dose 10.00 uM): 0.782

Compound: CC1=C(C(=O)Nc2cc3cn[nH]c3cc2F)C(c2ccc(C(F)(F)F)cc2)CC(=O)N1 (stereo not drawn) [GSK429286A]
- Dose.FC.LYZ.NS (log2 fold change) ([1]; dose 0.08 uM): 0.137
- Z.LYZ.NS (standard z score) ([1]; dose 0.08 uM): 1.197
- Dose.FC.LYZ.NS (log2 fold change) ([1]; dose 0.40 uM): 0.128
- Z.LYZ.NS (standard z score) ([1]; dose 0.40 uM): 1.117
- Dose.FC.LYZ.NS (log2 fold change) ([1]; dose 2.00 uM): 0.140
- Z.LYZ.NS (standard z score) ([1]; dose 2.00 uM): 1.222
- Dose.FC.LYZ.NS (log2 fold change) ([1]; dose 10.00 uM): 0.059
- Z.LYZ.NS (standard z score) ([1]; dose 10.00 uM): 0.517
- Dose.FC.LYZ.S (log2 fold change) ([2]; dose 0.08 uM): 0.247
- Dose.FC.LYZ.S (log2 fold change) ([2]; dose 0.40 uM): 0.283
- Dose.FC.LYZ.S (log2 fold change) ([2]; dose 2.00 uM): 0.245
- Dose.FC.LYZ.S (log2 fold change) ([2]; dose 10.00 uM): 0.099
- Dose.FC.CTG (log2 fold change) (ENR+CD organoids; dose 0.08 uM): 0.527
- Z.CTG (standard z score) (ENR+CD organoids; dose 0.08 uM): 1.260
- Dose.FC.CTG (log2 fold change) (ENR+CD organoids; dose 0.40 uM): 0.545
- Z.CTG (standard z score) (ENR+CD organoids; dose 0.40 uM): 1.302
- Dose.FC.CTG (log2 fold change) (ENR+CD organoids; dose 2.00 uM): 0.488
- Z.CTG (standard z score) (ENR+CD organoids; dose 2.00 uM): 1.166
- Dose.FC.CTG (log2 fold change) (ENR+CD organoids; dose 10.00 uM): 0.370
- Z.CTG (standard z score) (ENR+CD organoids; dose 10.00 uM): 0.883

Compound: O=C(NNc1nc2cc(F)ccc2n2cccc12)c1cnccn1 [SC144]
- Dose.FC.LYZ.NS [1, 7]: 0.067 log2 fold change
- Z.LYZ.NS ([1]; dose 0.08 uM): 0.582
- Dose.FC.LYZ.NS [1, 8]: −0.013 log2 fold change
- Z.LYZ.NS ([1]; dose 0.40 uM): −0.112
- Dose.FC.LYZ.NS [1, 9]: −0.025 log2 fold change
- Z.LYZ.NS ([1]; dose 2.00 uM): −0.220
- Dose.FC.LYZ.NS [1, 10]: −0.156 log2 fold change
- Z.LYZ.NS ([1]; dose 10.00 uM): −1.355
- Dose.FC.LYZ.S [2, 7]: 0.098 log2 fold change
- Dose.FC.LYZ.S [2, 8]: 0.014 log2 fold change
- Dose.FC.LYZ.S [2, 9]: −0.131 log2 fold change
- Dose.FC.LYZ.S [2, 10]: −0.211 log2 fold change
- Dose.FC.CTG (ENR+CD organoids; [7]): 0.160 log2 fold change
- Z.CTG (ENR+CD organoids; dose 0.08 uM): 0.381
- Dose.FC.CTG (ENR+CD organoids; [8]): 0.129 log2 fold change
- Z.CTG (ENR+CD organoids; dose 0.40 uM): 0.309
- Dose.FC.CTG (ENR+CD organoids; [9]): −0.257 log2 fold change
- Z.CTG (ENR+CD organoids; dose 2.00 uM): −0.613
- Dose.FC.CTG (ENR+CD organoids; [10]): −0.885 log2 fold change
- Z.CTG (ENR+CD organoids; dose 10.00 uM): −2.113
